Measurements from US6353017B1, “Dipeptide nitriles” (Novartis AG, priority 1997, dated 2002).

In the case of `COC(=O)c1cccc(OCCC(C#N)NC(=O)[C@H](Cc2cccc(C)c2)NC(=O)C(c2ccccc2)c2ccccc2)c1` (stereo partly drawn) [Example 305, N-[3-(3-(methoxycarbonyl)-phenoxy)-1-cyanopropyl]-3-methyl-Nα-(2,2-diphenylacetyl)-L-phenylalaninamide], the melting point was 152 to 153 °C.
